Measurements taken from US20140186329A1, “POLYPHENOL ANALOGS TO TREAT ISCHEMIA” (priority 2011, published 2014).
Like-named read-outs stand apart in the source and are kept apart here.

Experiments:
[1] = test system: HT22 cells; assay: In vitro ischemia assay (HT22 cell IAA assay, MTT); assay type: cell-based, mouse; conditions: for Emax / percent protection from IAA-induced cell death at 0.1 µM: HT-22; for Emax: HT22 Cell IAA assay, read-out: Max Protection; for percent protection from IAA-induced cell death at 0.1 µM: compound 100 nM; for increase of survival over the neuroprotective concentration range / neuroprotective concentration range: 20 μM IAA 2 hr, MTT at 24 hours
Procedure, shortened: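 Mouse HT22 hippocampal cells in DMEM/7.5% DFCS exposed 2 hr to 20 μM iodoacetic acid with or without derivative, then 20 hr in IAA-free medium still containing derivative. Viability by MTT (2.5 μg/ml, 4 hr, 37 °C), absorbance at 570 nm.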

[2] = test system: Nrf2; assay: Nrf2 induction, SDS-PAGE and Western blotting of nuclear extracts; assay type: cell-based; conditions: cells treated 1, 2 and 4 hr
Protocol: For immunoblotting of Nrf2, nuclear extracts were prepared as described (Schreiber, et al., Nucleic Acids Res. (1989) 17 (15), 6419) from untreated cells and cells treated with the Fisetin derivatives for 1, 2 and 4 hr. Fisetin was used as a positive control. […] Protein concentrations were determined using the BCA protein assay (Pierce). Equal amounts of protein were solubilized in 2.5×SDS-sample buffer, separated on 10% SDS-polyacrylamide gels and transferred to nitrocellulose. Equal loading and transfer of the samples was confirmed by staining the nitrocellulose with Ponceau-S. Transfers were blocked for 1 hr at room temperature with 5% nonfat milk in TBS/0.1% Tween 20 and then incubated overnight at 4° C. in the primary antibody diluted in 5% BSA in TBS/0.05% Tween 20. The primary antibodies used were: anti-Nrf2 (#SC13032; 1/1000) from Santa Cruz Biotechnology (Santa Cruz, Calif.) and anti-β-actin (#5125; 1/20,000) from Cell Signaling (Beverly, Mass.). The transfers were rinsed with TBS/0.05% Tween 20 and incubated for 1 hr at room temperature in horseradish peroxidase-goat anti-rabbit or goat anti-mouse (Biorad, Hercules, Calif.) diluted 1/5000 in 5% nonfat milk in TBS/0.1% Tween 20. The immunoblots were developed with the Super Signal reagent (Pierce, Rockford, Ill.).
The transcription factor Nrf2 plays a key role in regulating GSH metabolism in many different cell types (Lewerenz, et al., Antioxidant & Redox Signaling. (2011) 14, 1449-1465). We have shown that Fisetin can induce Nrf2 and this correlates with its ability to enhance GSH levels (Maher, P. et al., Genes. Nutr. (2009) September 10). To determine if the derivatives which can maintain GSH levels do so by increasing Nrf2 we looked at Nrf2 levels in the nuclei of derivative-treated cells using Fisetin as a positive control (Table 4). […] This was particularly true for the derivatives based on the quinoline scaffold where none of them increased Nrf2 despite being very effective at maintaining GSH levels.

[3] = Mus musculus, HT-22, HT22 cells, 20 μM IAA for 2 hr, viability after 24 hr by MTT, read-out: EC50 in vitro ischemia
[4] = HT22 cells, 20 μM IAA, read-out: HT22 Cell IAA assay EC50
[5] = Mus musculus, HT-22, HT22 cells, 20 μM IAA, read-out: HT22 Cell IAA assay EC50

Compound: Cc1cc2oc(-c3ccc(N(C)C)cc3)c(O)c(=O)c2cc1C [CMS-117, 2-(4-(dimethylamino)phenyl)-3-hydroxy-6,7-dimethyl-4H-chromen-4-one]
- EC50 [1, 3]: 20 nM
- Emax ([1]; Mus musculus): 81%
- Nrf2 (ability to induce the transcription factor Nrf2) [2]: No

Compound: O=c1c(O)c(-c2ccc(N3CCCC3)c(O)c2)oc2c1ccc1ccccc12 [CMS-140, 3-hydroxy-2-(3-hydroxy-4-(pyrrolidin-1-yl)phenyl)-4H-benzo[h]chromen-4-one]
- EC50 [1, 3]: 5 nM
- Emax ([1]; Mus musculus): 89%
- fold improvement of neuroprotective activity/potency relative to Fisetin ([1]; in vitro ischemia, HT22/IAA): up to 600 fold
- Nrf2 (ability to induce the transcription factor Nrf2) [2]: No

Compound: Cc1cc2oc(-c3ccc(N4CCCC4)cc3)c(O)c(=O)c2cc1C [CMS-122, 3-hydroxy-6,7-dimethyl-2-(4-(pyrrolidin-1-yl)phenyl)-4H-chromen-4-one]
- EC50 [1, 3]: 90 nM
- Nrf2 (ability to induce the transcription factor Nrf2) [2]: No

Compound: O=C(/C=C/c1ccc(O)c(O)c1)c1ccc2ccccc2c1O [CMS-034, (E)-3-(3,4-dihydroxyphenyl)-1-(1-hydroxynaphthalen-2-yl)prop-2-en-1-one]
- EC50 [1, 4]: 79 nM
- EC50 [1, 3]: 80 nM
- EC50 [1, 5]: ≤ 100 nM
- percent protection from IAA-induced cell death at 0.1 µM ([1]; Mus musculus, 20 μM IAA): 63%
- Emax ([1]; Mus musculus): 81%
- Nrf2 (ability to induce the transcription factor Nrf2) [2]: Yes

Compound: COc1cc(-c2oc3cc(C)c(C)cc3c(=O)c2O)ccc1OCc1ccccc1 [CMS-059, 2-(4-(benzyloxy)-3-methoxyphenyl)-3-hydroxy-6,7-dimethyl-4H-chromen-4-one]
- EC50 [1, 3]: 170 nM
- EC50 [1, 5]: 167 nM
- percent protection from IAA-induced cell death at 0.1 µM ([1]; Mus musculus, 20 μM IAA): 49%

Compound: COc1cc(-c2oc3cc(C)c(C)cc3c(=O)c2O)ccc1O [CMS-069, 3-hydroxy-2-(4-hydroxy-3-methoxyphenyl)-6,7-dimethyl-4H-chromen-4-one]
- EC50 [1, 4]: 36 nM
- EC50 [1, 3]: 40 nM
- EC50 [1, 5]: < 40 nM
- percent protection from IAA-induced cell death at 0.1 µM ([1]; Mus musculus, 20 μM IAA): 67%

Compound: O=c1c(O)c(-c2ccc(O)c(O)c2)oc2c1ccc1ccccc12 [CMS-040, 2-(3,4-dihydroxyphenyl)-3-hydroxy-4H-benzo[h]chromen-4-one]
- EC50 [1, 3]: 90 nM
- percent protection from IAA-induced cell death at 0.1 µM ([1]; Mus musculus, 20 μM IAA): 67%
- fold enhancement of neuroprotective activity relative to CMS-04P ([1]; in vitro ischemia, HT22/IAA): ~5.5 fold

Compound: CC(C)Oc1cc(-c2ccc(O)c(O)c2)nc2ccccc12 [CMS-024, 4-isopropoxy-2-(3,4-dihydroxyphenyl) quinoline]
- EC50 [1, 3]: 20 nM
- EC50 [1, 5]: 21 nM
- percent protection from IAA-induced cell death at 0.1 µM ([1]; Mus musculus, 20 μM IAA): 72%
- fold improvement of neuroprotective activity relative to CMS-007 ([1]; in vitro ischemia, HT22/IAA): ~2 fold
- Nrf2 (ability to induce the transcription factor Nrf2) [2]: No

Compound: Cc1cc(O)c(C(=O)/C=C/c2ccc(O)c(O)c2)cc1C [CMS-011, (E)-3-(3,4-dihydroxyphenyl)-1-(2-hydroxy-4,5-dimethylphenyl)prop-2-en-1-one]
- EC50 [1, 4]: 53 nM
- EC50 [1, 3]: 50 nM
- EC50 [1, 5]: 50 nM
- percent protection from IAA-induced cell death at 0.1 µM ([1]; Mus musculus, 20 μM IAA): 62%
- Nrf2 (ability to induce the transcription factor Nrf2) [2]: Yes

Compound: COc1cc(-c2ccc(O)c(O)c2)nc2ccccc12 [CMS-007, 4-methoxy-2-(3,4-dihydroxyphenyl) quinoline]
- EC50 [1, 3]: 40 nM
- percent protection from IAA-induced cell death at 0.1 µM ([1]; Mus musculus, 20 μM IAA): 71%
- fold improvement of neuroprotective activity/potency relative to Fisetin ([1]; in vitro ischemia, HT22/IAA): ~75 fold
- Nrf2 (ability to induce the transcription factor Nrf2) [2]: No

Compound: CN(C)c1ccc(-c2oc3c(ccc4ccccc43)c(=O)c2O)cc1 [CMS-118, 2-(4-(dimethylamino)phenyl)-3-hydroxy-4H-benzo[h]chromen-4-one]
- EC50 [1, 3]: 40 nM
- Emax ([1]; Mus musculus): 82%
- Nrf2 (ability to induce the transcription factor Nrf2) [2]: No

Compound: COc1ccc(/C=C/C(=O)c2cc(C)c(C)cc2O)cc1OCc1ccccc1 [CMS-086, (E)-3-(3-(benzyloxy)-4-methoxyphenyl)-1-(2-hydroxy-4,5-dimethylphenyl)prop-2-en-1-one]
- EC50 in vitro ischemia (μM) ([1]; HT22 cells, 20 μM IAA for 2 hr, viability after 24 hr by MTT): no
- Nrf2 (ability to induce the transcription factor Nrf2) [2]: Yes

Compound: O=C(/C=C/c1ccc(O)c(O)c1)O[C@@H]1C[C@](O)(C(=O)O)C[C@@H](O)[C@H]1O [Chlorogenic Acid, 1,3,4,5-tetrahydroxy-cyclohexanecarboxylic acid 3-(3,4-dihydroxycinnamate)]
- HT22 Cell IAA assay (maximal % protection) ([1]; 20 μM IAA): 45%
- EC50 [1, 5]: 5000 nM

Compound: Oc1ccc(-c2cc(OC3CCCC3)c3ccccc3n2)cc1O [CMS-121, 4-cyclopentyloxy-2-(3,4-dihydroxyphenyl) quinoline]
- EC50 [1, 3]: 7 nM
- Emax ([1]; Mus musculus): 86%
- fold improvement of neuroprotective activity/potency relative to Fisetin ([1]; in vitro ischemia, HT22/IAA): > 400 fold
- Nrf2 (ability to induce the transcription factor Nrf2) [2]: No

Compound: O=c1c(O)c(-c2ccc(O)c(O)c2)oc2cc(O)ccc12 [Fisetin, 3,7,3′,4′-Tetrahydroxyflavone, reference compound]
- HT22 Cell IAA assay (maximal % protection) ([1]; 20 μM IAA): 90%
- increase of survival over the neuroprotective concentration range ([1]; HT22 cells): greater than 85%
- neuroprotective concentration range ([1]; HT22 cells): 5 to 25 µM
- EC50 [1, 3]: 3000 nM
- EC50 [1, 5]: 3000 nM
- Nrf2 (ability to induce the transcription factor Nrf2) [2]: Yes

Compound: O=c1cc(-c2ccccc2)oc2cc(O)c(O)c(O)c12 [Baicalein, 5,6,7-trihydroxyflavone, reference compound]
- HT22 Cell IAA assay (maximal % protection) ([1]; 20 μM IAA): 85%
- increase of survival over the neuroprotective concentration range ([1]; HT22 cells): greater than 80%
- neuroprotective concentration range ([1]; HT22 cells): 2.5 to 10 µM
- EC50 [1, 5]: 1500 nM

Compound: CCOc1cc(-c2ccc(O)c(O)c2)nc2ccccc12 [CMS-023, 4-ethoxy-2-(3,4-dihydroxyphenyl) quinoline]
- EC50 [1, 3]: 20 nM
- EC50 [1, 5]: 21 nM
- percent protection from IAA-induced cell death at 0.1 µM ([1]; Mus musculus, 20 μM IAA): 72%
- fold improvement of neuroprotective activity relative to CMS-007 ([1]; in vitro ischemia, HT22/IAA): ~2 fold
- fold improvement of neuroprotective activity/potency relative to Fisetin ([1]; in vitro ischemia, HT22/IAA): ~140 fold
- Nrf2 (ability to induce the transcription factor Nrf2) [2]: No

Compound: O=c1c(O)c(-c2ccc(O)c(O)c2)oc2ccccc12 [CMS-04P, reference compound]
- EC50 [1, 3]: 500 nM
- EC50 [1, 5]: 500 nM
- fold improvement of neuroprotective activity/potency relative to Fisetin ([1]; in vitro ischemia, HT22/IAA): ~6 fold
- Nrf2 (ability to induce the transcription factor Nrf2) [2]: Yes
